This is an account of results in ChEMBL document CHEMBL5143569 (Eur J Med Chem, 2022).

Assay [1] deals with Tyrosine-protein phosphatase non-receptor type 6 (Homo sapiens, UniProt P29350). The assay is described as follows: Inhibition of wild-type SHP1 (2 to 595 residues) (unknown origin) using DiFMUP as substrate and measured by biochemical assay.
In assay [2] the target is T1, Tyrosine-protein phosphatase non-receptor type 1 (Homo sapiens, UniProt P18031).
T1 sequence (P18031 whole entry): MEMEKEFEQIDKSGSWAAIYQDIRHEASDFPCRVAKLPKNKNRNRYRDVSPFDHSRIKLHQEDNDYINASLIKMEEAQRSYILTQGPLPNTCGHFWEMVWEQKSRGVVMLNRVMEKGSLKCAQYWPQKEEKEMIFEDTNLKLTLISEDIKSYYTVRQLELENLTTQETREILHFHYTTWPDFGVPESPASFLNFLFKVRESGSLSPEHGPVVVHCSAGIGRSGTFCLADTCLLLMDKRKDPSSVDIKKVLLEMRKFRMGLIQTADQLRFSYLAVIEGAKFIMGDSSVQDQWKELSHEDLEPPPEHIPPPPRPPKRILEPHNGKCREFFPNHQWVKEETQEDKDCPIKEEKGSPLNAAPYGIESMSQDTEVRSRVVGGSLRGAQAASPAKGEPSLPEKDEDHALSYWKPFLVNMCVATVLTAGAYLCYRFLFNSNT
In words: Inhibition of wild-type PTP1B (2 to 435 residues) (unknown origin) using DiFMUP as substrate and measured by biochemical assay.

The nature of assay [3]: Inhibition of SHP2 E76A mutant (unknown origin). Set-up: species or system Homo sapiens.
The target of assay [4] is T2, Tyrosine-protein phosphatase non-receptor type 11 (Homo sapiens, UniProt Q06124).
T2 sequence (Q06124 whole entry): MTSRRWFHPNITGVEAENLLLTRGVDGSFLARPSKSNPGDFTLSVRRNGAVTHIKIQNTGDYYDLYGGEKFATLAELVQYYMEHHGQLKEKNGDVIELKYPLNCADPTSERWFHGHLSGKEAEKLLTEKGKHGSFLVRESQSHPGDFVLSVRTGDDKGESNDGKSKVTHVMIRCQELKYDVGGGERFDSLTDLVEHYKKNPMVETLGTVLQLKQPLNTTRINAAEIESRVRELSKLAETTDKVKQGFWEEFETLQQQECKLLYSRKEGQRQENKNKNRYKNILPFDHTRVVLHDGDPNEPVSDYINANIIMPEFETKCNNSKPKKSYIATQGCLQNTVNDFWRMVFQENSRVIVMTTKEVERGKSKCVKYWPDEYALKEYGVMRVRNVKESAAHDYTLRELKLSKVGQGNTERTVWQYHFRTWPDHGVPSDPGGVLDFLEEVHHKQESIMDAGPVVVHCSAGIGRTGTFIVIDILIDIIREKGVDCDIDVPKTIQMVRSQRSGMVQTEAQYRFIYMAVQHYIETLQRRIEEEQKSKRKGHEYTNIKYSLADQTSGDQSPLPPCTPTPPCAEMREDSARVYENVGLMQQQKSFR

Assay [5] addresses T2, Tyrosine-protein phosphatase non-receptor type 11. The source holds these as a separate data set.
Description: Allosteric inhibition of recombinant human SHP2 PTP domain (237 to 535 residues) using DiFMUP as substrate preincubated for 30 mins and followed by substrate addition and measured by microplate reader method
Assay [6] shares this target. In words: Reversible inhibition of wild-type human SHP2 using DiFMUP as substrate and measured by jump dilution assay.

Chain of Tyrosine-protein phosphatase non-receptor type 6 (P29350 whole entry, the tested form may be a part): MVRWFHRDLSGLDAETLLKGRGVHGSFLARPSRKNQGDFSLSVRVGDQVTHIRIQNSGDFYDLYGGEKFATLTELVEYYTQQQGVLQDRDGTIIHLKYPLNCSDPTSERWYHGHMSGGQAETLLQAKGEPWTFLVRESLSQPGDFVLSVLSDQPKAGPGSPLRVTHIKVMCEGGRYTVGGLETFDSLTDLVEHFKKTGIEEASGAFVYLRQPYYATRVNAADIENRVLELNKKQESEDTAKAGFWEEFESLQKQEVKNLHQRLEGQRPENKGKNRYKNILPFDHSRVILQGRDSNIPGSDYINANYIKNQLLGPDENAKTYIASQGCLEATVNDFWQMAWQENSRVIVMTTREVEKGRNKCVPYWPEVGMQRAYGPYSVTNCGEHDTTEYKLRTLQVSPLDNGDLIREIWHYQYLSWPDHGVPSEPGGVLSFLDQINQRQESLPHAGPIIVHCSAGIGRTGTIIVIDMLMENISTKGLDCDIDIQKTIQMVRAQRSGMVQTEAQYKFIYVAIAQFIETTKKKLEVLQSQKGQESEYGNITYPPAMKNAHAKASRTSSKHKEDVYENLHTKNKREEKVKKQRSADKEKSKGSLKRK

Turning to `CC1(N)CCN(c2cnc(-c3cccc(Cl)c3Cl)c(N)n2)CC1`, the IC50 in assay [1] and in assay [2] was greater than 100 µM throughout.

`CC1(N)CCN(c2nc(-c3ccc4cc(Br)ccc4c3)cs2)CC1` displayed a half-inhibitory concentration (IC50) in assay [3] of 0.71 µM.

Regarding `CC1(N)CCN(c2cnc(Sc3ccccc3Cl)c(N)n2)CC1`, the IC50 is 0.098 µM in assay [4] and greater than 10 µM in assay [5].

With `CC1(N)CCN(c2cnc(Sc3cccc(Cl)c3Cl)c(N)n2)CC1`, the values for the IC50 in assay [4] and in assay [5] were 0.025 µM and greater than 10 µM, respectively.

Turning to `CC1(CN)CCN(c2cnc(Sc3cccc(Cl)c3Cl)c(N)n2)CC1`, the Ki in assay [6] was 0.022 µM. The IC50 in assay [1] was greater than 100 µM; in assay [2] it was greater than 100 µM; in assay [5], greater than 10 µM.

For `COc1cccc(-c2nnc3n(Cc4ccc(C(=O)N5CCC[C@H]5C(=O)O)cc4Cl)c(=O)c4ccccc4n23)c1O`, the IC50 in assay [4] was determined as 60 µM.

Consider `CC1(N)CCN(c2cnc(Sc3cccc4ccccc34)c(N)n2)CC1`, for which the values for the IC50 in assay [4] and in assay [5] were 0.175 µM and greater than 10 µM, respectively.

Turning to `CC1(N)CCN(c2cnc(SC3CCCCC3)c(N)n2)CC1`, the IC50 was 9.55 µM in assay [4] and greater than 10 µM in assay [5].

`CC1(O)CCN(c2cnc(-c3cccc(Cl)c3Cl)c(N)n2)CC1`: the values for the IC50 in assay [4] and in assay [5] were 13.7 µM and greater than 10 µM, respectively.

As for `Nc1nc(N2CC[C@H](N)C2)cnc1-c1cccc(Cl)c1Cl`, the IC50 is 2.03 µM in assay [4] and greater than 10 µM in assay [5].

In the case of `CN1CCN(c2cnc(-c3cccc(Cl)c3Cl)c(N)n2)CC1`, the IC50 in assay [4] is 0.695 µM; in assay [5] it was greater than 10 µM.

In the case of `CC1(N)CCN(c2cnc(Sc3cccc(Cl)c3)c(N)n2)CC1`, the values for the IC50 in assay [4] and in assay [5] were 0.747 µM and greater than 10 µM, respectively.

Turning to `NCC1CCN(c2cnc(Sc3cccc(Cl)c3Cl)c(N)n2)CC1`, the concentration for half-maximal inhibition (IC50) is 0.11 µM in assay [4] and greater than 10 µM in assay [5].

On to `CC1(N)CCN(c2cnc(-c3cccc(F)c3F)c(N)n2)CC1`, for which the IC50 in assay [4] was 5.71 µM; in assay [5], greater than 10 µM.

For `CC1(N)CCN(c2cnc(Sc3ccc4ccccc4c3)c(N)n2)CC1`, the IC50 in assay [4] is 0.976 µM; in assay [5], greater than 10 µM.

As for `CC1(N)CCN(c2cnc(Sc3ccccc3C(F)(F)F)c(N)n2)CC1`, the IC50 was 0.178 µM in assay [4] and greater than 10 µM in assay [5].

Take `CC1(N)CCN(c2cnc(Sc3ccccc3)c(N)n2)CC1`: the figures for the IC50 in assay [4] and in assay [5] were 0.811 µM and greater than 10 µM, respectively.

In the case of `COc1ccccc1Sc1ncc(N2CCC(C)(N)CC2)nc1N`, the concentration for half-maximal inhibition (IC50) in assay [4] is 0.079 µM; in assay [5] it was greater than 10 µM.

For the compound `Cc1ccccc1Sc1ncc(N2CCC(C)(N)CC2)nc1N`, the figures for the IC50 in assay [4] and in assay [5] were 1.8 µM and greater than 10 µM, respectively.

Take `CC1(N)CCN(c2cnc(-c3ccc(C#N)cc3)c(N)n2)CC1`: the IC50 in assay [4] is 14.8 µM; in assay [5], greater than 10 µM.

As to `Cc1ccc(-c2ncc(N3CCC(C)(N)CC3)nc2N)cc1`, the results for the half-maximal inhibitory concentration (IC50) in assay [4] and in assay [5] were 9.03 µM and greater than 10 µM, respectively.

Regarding `CC1(N)CCN(c2cnc(Sc3ccccc3F)c(N)n2)CC1`, the IC50 was 0.484 µM in assay [4] and greater than 10 µM in assay [5].

`Nc1nc(N2CCNCC2)cnc1-c1cccc(Cl)c1Cl`: the IC50 was 0.712 µM in assay [4] and greater than 10 µM in assay [5].

As for `CC1(N)CCN(c2cnc(Sc3ccccc3Br)c(N)n2)CC1`, the IC50 in assay [4] is 0.059 µM; in assay [5] it was greater than 10 µM.

With `Nc1nc(N2CCC(N)CC2)cnc1-c1cccc(Cl)c1Cl`, the IC50 is 2.77 µM in assay [4] and greater than 10 µM in assay [5].

Regarding `Nc1nc(N2CCC(O)CC2)cnc1-c1cccc(Cl)c1Cl`, the results for the IC50 in assay [4] and in assay [5] were 6.18 µM and greater than 10 µM, respectively.

For `CNC1CCN(c2cnc(-c3cccc(Cl)c3Cl)c(N)n2)CC1`, the concentration for half-maximal inhibition (IC50) in assay [4] is 1.64 µM; in assay [5], greater than 10 µM.

Regarding `NCCC1CCN(c2cnc(-c3cccc(Cl)c3Cl)c(N)n2)CC1`, the figures for the IC50 in assay [4] and in assay [5] were 0.858 µM and greater than 10 µM, respectively.

As to `CC1(N)CCN(c2cnc(SCc3ccccc3)c(N)n2)CC1`, the IC50 was 10.8 µM in assay [4] and greater than 10 µM in assay [5].

Take `CC1(N)CCN(c2cnc(Sc3ccc(Cl)cc3)c(N)n2)CC1`: the IC50 in assay [4] is 3.84 µM; in assay [5], greater than 10 µM.

For `CC1(N)CCN(c2cnc(SCc3ccccc3Cl)c(N)n2)CC1`, the IC50 was 5.6 µM in assay [4] and greater than 10 µM in assay [5].

Take `CN(CCN)c1cnc(-c2cccc(Cl)c2Cl)c(N)n1`: the IC50 in assay [4] is 9.66 µM; in assay [5] it was greater than 10 µM.

Usually IC50 stands for the concentration that gives 50% inhibition. Low readings indicate inhibition by little substance, high ones a need for much substance. Broadly, the Ki is a dissociation constant, usually derived from enzyme kinetics or from competition with a known ligand. Low readings indicate higher affinity, high ones lower affinity.
